System: delta receptor
Assay: Radioligand binding assay, [3H]-DADLE in mouse brain membranes
Details: stated in words after the delta affinity range
Experimental: The activity of the compounds of the present invention as selective delta ligands is determined in radioligand binding assays as described below.
Mouse brain membranes were prepared as described by Kosterlitz (Br. J. Pharmacol., 1981, 73, 939.). The binding of the preferential delta ligand [^3 H]-[D-Ala^2,D-Leu^5 ]-enkephalin (DADLE) was evaluated at its KD concentration (1.3 nM) in presence of 40 nM of the unlabelled mu ligand [D-Ala^2, MePhe^4, Gly-ol5]-enkephalin (DAMGO). The binding of the mu ligand [^3 H]-DAMGO (Eur. J. Pharmacol., 1989, 166, 213) and of the kappa ligand [^3 H]-U69593 (Excerpta Medica, 1990, 211) were carried out at 0.5 nM. The non-specific binding was determined in presence of naloxone (10 μM) for all tritiated ligands. Binding data were expressed as percentage of inhibition and fitted the following equation: f(x)=100.X/(IC50 +X) where X are cold drug concentration values. The IC50 obtained were used to calculate the inhibitory constants (Ki) accordingly to the Cheng and Prusoff relation (Biochem. Pharmacol., 1973, 22, 3099).

CN1CC[C@]2(c3cccc(O)c3)CC(c3ccccc3)=CC[C@H]2C1 (racemic) [Example 3, (±)-trans-4a-(3-Hydroxyphenyl)-2-methyl-6-phenyl-1,2,3,4,4a,5,8,8a-octahydroisoquinoline]
potency rank among the exemplified compounds: most potent of the exemplified compounds
